Assay results from ChEMBL document CHEMBL1201862, “PubChem BioAssay data set” (2004).
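Test compounds were applied to cells in 96-well plates for 48 hours at 5 doses. Here, GI50 denotes the concentration required for 50% inhibition of growth.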 Calls of active or inactive are those of the source. Rule as the data show it: active = GI50 up to about 1.1 µM and inactive = higher.

Legend:
Test in all cases: NCI tumour cell line growth inhibition, 48 h
NCI-H460 = system: NCI-H460
SF-539 = system: SF-539
SF-268 = system: SF-268
MDA-N = system: MDA-N
A498 = system: A498
HOP-62 = system: HOP-62
OVCAR-8 = system: OVCAR-8
SR = system: SR
OVCAR-4 = system: OVCAR-4
MCF7 = system: MCF7
Hs-578T = system: Hs-578T
DU-145 = system: DU-145
LOX IMVI = system: LOX IMVI
MOLT-4 = system: MOLT-4
CAKI-1 = system: CAKI-1
NCI-H23 = system: NCI-H23
SK-MEL-2 = system: SK-MEL-2
U-251 = system: U-251
SK-MEL-28 = system: SK-MEL-28
PC-3 = system: PC-3

| SMILES | GI50 (NCI-H460) | GI50 (SF-539) | GI50 (SF-268) | GI50 (MDA-N) | GI50 (A498) | GI50 (HOP-62) | GI50 (OVCAR-8) | GI50 (SR) | GI50 (OVCAR-4) | GI50 (MCF7) | GI50 (Hs-578T) | GI50 (DU-145) | GI50 (LOX IMVI) | GI50 (MOLT-4) | GI50 (CAKI-1) | GI50 (NCI-H23) | GI50 (SK-MEL-2) | GI50 (U-251) | GI50 (SK-MEL-28) | GI50 (PC-3) |
| --- | --- | --- | --- | --- | --- | --- | --- | --- | --- | --- | --- | --- | --- | --- | --- | --- | --- | --- | --- | --- |
| O=[N+]([O-])c1ccc(-c2ccc([C@H]3CC(c4cc(F)c(Cl)cc4Cl)=NN3)o2)cc1 | 0.435 µM (active) | 5.38 µM (inactive) | 19.1 µM (inactive) | 36.1 µM (inactive) | 35.5 µM (inactive) | 17 µM (inactive) | 10.8 µM (inactive) | 0.621 µM (active) | 40.2 µM (inactive) | 16.7 µM (inactive) | > 100 µM (inactive) | 26.9 µM (inactive) | 3.63 µM (inactive) | 1.95 µM (inactive) | 25.9 µM (inactive) | 2.3 µM (inactive) | – | – | – | – |
| O=[N+]([O-])c1ccc(Cc2nc3cc4ccccc4cc3[nH]2)cc1C(F)(F)F | 7.82 µM (inactive) | 16.2 µM (inactive) | 13.6 µM (inactive) | – | 17.7 µM (inactive) | 13.8 µM (inactive) | 19 µM (inactive) | – | 17.5 µM (inactive) | 15.5 µM (inactive) | 11.6 µM (inactive) | 22.1 µM (inactive) | 18.5 µM (inactive) | 13.1 µM (inactive) | 11.6 µM (inactive) | 12.5 µM (inactive) | 20 µM (inactive) | 14.8 µM (inactive) | 24.2 µM (inactive) | 15.4 µM (inactive) |
| CC1=NN(c2nc(N)nc(CC#N)n2)C(C)(C)C1 | > 100 µM (inactive) | > 100 µM (inactive) | > 100 µM (inactive) | – | > 100 µM (inactive) | > 100 µM (inactive) | > 100 µM (inactive) | > 100 µM (inactive) | > 100 µM (inactive) | > 100 µM (inactive) | > 100 µM (inactive) | > 100 µM (inactive) | > 100 µM (inactive) | > 100 µM (inactive) | > 100 µM (inactive) | > 100 µM (inactive) | > 100 µM (inactive) | > 100 µM (inactive) | > 100 µM (inactive) | > 100 µM (inactive) |
| CCC1OC2C(CC=C(C)C)=C3OC(C)(O)C(C)(CC)C(O)C3=C3OC(=O)C=C1C32 (stereo not given) | 21.4 µM (inactive) | 15.8 µM (inactive) | 27 µM (inactive) | – | > 100 µM (inactive) | – | – | – | 36.2 µM (inactive) | 31.3 µM (inactive) | – | 50.5 µM (inactive) | 12.4 µM (inactive) | 24.5 µM (inactive) | > 100 µM (inactive) | 21.6 µM (inactive) | 26.1 µM (inactive) | 58.9 µM (inactive) | 50.8 µM (inactive) | 68.5 µM (inactive) |
| c1ccc2sc(SCN(C3CCCCC3)C3CCCCC3)nc2c1 | > 100 µM (inactive) | – | > 100 µM (inactive) | – | > 100 µM (inactive) | > 100 µM (inactive) | > 100 µM (inactive) | > 100 µM (inactive) | > 100 µM (inactive) | – | > 100 µM (inactive) | > 100 µM (inactive) | > 100 µM (inactive) | > 100 µM (inactive) | > 100 µM (inactive) | > 100 µM (inactive) | > 100 µM (inactive) | > 100 µM (inactive) | > 100 µM (inactive) | > 100 µM (inactive) |
| CNC(=O)OCc1c(CO)nc(SC)n1C | > 100 µM (inactive) | > 100 µM (inactive) | > 100 µM (inactive) | – | > 100 µM (inactive) | > 100 µM (inactive) | > 100 µM (inactive) | – | > 100 µM (inactive) | > 100 µM (inactive) | – | – | > 100 µM (inactive) | > 100 µM (inactive) | > 100 µM (inactive) | > 100 µM (inactive) | > 100 µM (inactive) | > 100 µM (inactive) | > 100 µM (inactive) | – |
| CC(C)=CC1C(C(=O)O)C1(C)C (stereo not given) [CHRYSANTHEMIC ACID] | > 750 µM (inactive) | > 750 µM (inactive) | > 750 µM (inactive) | – | 24 µM (inactive) | > 750 µM (inactive) | > 750 µM (inactive) | – | > 750 µM (inactive) | > 750 µM (inactive) | – | – | > 750 µM (inactive) | > 750 µM (inactive) | 643 µM (inactive) | > 750 µM (inactive) | > 750 µM (inactive) | > 750 µM (inactive) | > 750 µM (inactive) | – |
| COc1ccc2c(c1)CC1c3c(ccc(OC)c3O)CC2N1C (stereo not given) | 19.3 µM (inactive) | 24.7 µM (inactive) | 54.2 µM (inactive) | – | > 100 µM (inactive) | > 92.3 µM (inactive) | 34.2 µM (inactive) | 15.3 µM (inactive) | 29.4 µM (inactive) | – | – | – | 23.9 µM (inactive) | 23 µM (inactive) | 40 µM (inactive) | 43.6 µM (inactive) | 19.2 µM (inactive) | 25.1 µM (inactive) | 21 µM (inactive) | – |
